Experiments:
[1] = test system: HCT116 MTAP wild-type cells; experiment: Human colon cancer HCT116 cell proliferation inhibition test (CellTiter-Glo, 6 days), MTAP wild-type cells; format: cell-based; settings: HCT-116, 144 h
Protocol: 1. HCT116 MTAP knockout and MTAP wild-type cells were plated in 96-well flat bottom plates, and cultured overnight with McCoy's 5A medium containing 10% fetal bovine serum+1% penicillin-streptomycin at 37° C. and 5% CO2.
2. On the next day, the compound was dissolved with DMSO, diluted with DMSO and medium successively and transferred to the cell plate. The final concentration of the compound was 10 μM, the compound was diluted 4 times, with 9 concentration gradients, and DMSO control was added.
3. Cells that have not been treated with the compound were removed. CellTiter-Glo Luminescent Cell Viability Assay (Promega) was used to detect cell viability, the operation was performed with reference to the package insert of the kit, and then the cell plate was placed on EnVision Multilabel Reader to detect the cold light signal.
4. Meanwhile, the cell plate treated with the compound was cultured at 37° C. and 5% CO2 for 6 consecutive days.
5. Then, CellTiter-Glo was also used to detect cell viability.
6. Finally, the four-parameter dose-response curve module of GraphPad Prism v 9.2.0 software was used to plot the dose-response curve and calculate the IC50 for proliferation inhibition (unit: nM).

[2] = test system: HCT116 MTAP knockout cells; experiment: Human colon cancer HCT116 cell proliferation inhibition test (CellTiter-Glo, 6 days), MTAP knockout cells; format: cell-based; settings: HCT-116, 144 h
Outline: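 Cells seeded overnight in McCoy's 5A with 10% FBS, then exposed to compound from 10 μM top concentration, 4-fold dilutions, 9 points, for 6 days at 37 °C, 5% CO2. Viability by CellTiter-Glo luminescence; IC50 from 4-parameter dose-response curve.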

[3] = Pharmacokinetic assay in mice, blood-brain barrier penetration analysis (Kp); format: in vivo; settings: male, mouse, ICR mice, PO single dose 10 mg/kg, brain vs plasma, read-out: Kp (4 h after administration)
Protocol: The purpose of this trial is to study the pharmacokinetic behavior of some compounds of the present invention, and the administration method is: ICR mice were orally administered (PO) a single dose, at a dose of 10 mg/kg.
ICR mice male N=3 original source: Shanghai Sippr-Bk Lab Animal Co., Ltd.
The compounds were weighed and dissolved in 20% PG+10% Solutol HS15+70% pH 3 citrate buffer, respectively, shaken well and sonicated to prepare colorless clear solutions. 9 mice were administered orally after an overnight fast. The dose was 10 mg/kg.
• 1) About 90 μL blood was collected via the submandibular vein per time point, heparin sodium anticoagulant was added, the sample was placed on ice after collection, and plasma was centrifuged within 1 hour (centrifugation conditions: 8,000 rpm, 6 minutes, 2-8° C.). • 2) The blood collection time points were 1, 4, and 24 h. The samples were stored in a refrigerator at −20° C. • 3) The plasma sample was 40 μL, 160 μL of ice-cold acetonitrile containing internal standard was added, vortexed for 3 minutes, and centrifuged at 11,000 rpm for 5 minutes. • 4) 100 μL of the supernatant was taken and added to 100 μL of water, 5 μL of the sample was taken and injected into LC/MS/MS for analysis.
AUC or concentration in brain or plasma measured by using the above method was used to calculate the Kp. Kp refers to the relationship between drug concentrations in brain and blood and is used to evaluate the ability of a drug to penetrate the blood-brain barrier. Post-dose Kp was calculated by the following formula: […]

Compound `Nc1nc2ccc(C(=O)N(CC3CC3)[C@@H]3COc4cc(C(F)(F)F)ccc43)cc2c2cnccc12` [Example 192, (S)-5-amino-N-(cyclopropylmethyl)-N-(6-(trifluoromethyl)-2,3-dihydrobenzofuran-3-yl)benzo[c][2,6]naphthyridin-9-carboxamide] has an IC50 [1] of 79 nM, an IC50 [2] of 3.6 nM and a Kp at 4 h [3] of 0.4.

For `Nc1nc2ccc(C(=O)N(CC3CC3)[C@@H]3CCc4cc(C(F)(F)F)ccc43)cc2c2cnccc12` [Example 219, (R)-5-amino-N-(cyclopropylmethyl)-N-(5-(trifluoromethyl)-2,3-dihydro-1H-inden-1-yl)benzo[c][2,6]naphthyridin-9-carboxamide], the IC50 [1] was 1560 nM, the IC50 [2] was 35 nM and the Kp at 4 h [3] was 0.5.

`Cc1cc2nc(N)c3ccncc3c2cc1C(=O)N(CC1CC1)[C@@H]1COc2cc(C(F)(F)F)ccc21` [Example 233, (S)-5-amino-N-(cyclopropylmethyl)-8-methyl-N-(6-(trifluoromethyl)-2,3-dihydrobenzofuran-3-yl)benzo[c][2,6]naphthyridin-9-carboxamide] gave an IC50 [1] of 102 nM, an IC50 [2] of 33 nM and a Kp at 4 h [3] of 0.4.

Compound `Nc1nc2cc(F)c(C(=O)N(CC3CC3)[C@@H]3COc4cc(C(F)(F)F)ccc43)cc2c2cnccc12` [Example 234, (S)-5-amino-N-(cyclopropylmethyl)-8-fluoro-N-(6-(trifluoromethyl)-2,3-dihydrobenzofuran-3-yl)benzo[c][2,6]naphthyridin-9-carboxamide] has an IC50 [1] of 224 nM, an IC50 [2] of 20 nM and a Kp at 4 h [3] of 0.7.

In the case of `Nc1nc2cc(Cl)c(C(=O)N(CC3CC3)[C@@H]3COc4cc(C(F)(F)F)ccc43)cc2c2cnccc12` [Example 235, (S)-5-amino-8-chloro-N-(cyclopropylmethyl)-N-(6-(trifluoromethyl)-2,3-dihydrobenzofuran-3-yl)benzo[c][2,6]naphthyridin-9-carboxamide], the IC50 [1] is reported as 176 nM, the IC50 [2] is reported as 21 nM and the Kp at 4 h [3] is reported as 0.7.

`CN(C(=O)c1ccc2nc(N)c3ccncc3c2c1)[C@@H]1COc2cc(C(F)(F)F)ccc21` [Reference Compound 2, reference compound] gave an IC50 [1] of 702 nM, an IC50 [2] of 25 nM and a Kp at 4 h [3] of 0.1.

Reference: patent US20250320202A1, “PRMT5 INHIBITOR, PREPARATION METHOD THEREFOR, AND PHARMACEUTICAL USE THEREOF” (Abbisko Therapeutics Co., Ltd., priority 2022, published 2025)
